Data: paper PMC7782499, “Progerinin, an optimized progerin-lamin A binding inhibitor, ameliorates premature senescence phenotypes of Hutchinson-Gilford progeria syndrome” (Communications Biology, 2021)

Tested on: Lmna G609G/+ mouse
Assay: Life span of Lmna G609G/+ mice
Assay type: in vivo
From the text: Fig. 3 In vivo favorable effect of SLC-D011. A Gross morphology of Lmna^G609G/G609G mice (10 weeks old) was ameliorated after injection with SLC-D011. At the same age, the experimental group (D011) of mice were larger than vehicle-injected control (Con) subjects regardless of gender. B, C SLC-D011 increases body weight B and extends life span C of Lmna^G609G/G609G progeria model mouse (Con: n = 8; SLC-D011: n = 8). Compared with 14.8 weeks of average (ave) life span with maximum (max) life span of 15.5 weeks, 20 mg/kg of intraperitoneal (i.p) injection (twice a week) of SLC-D011 could extend the life span upto 19 weeks (max = 21 weeks). Lmna^G609G/G609G mice were injected with SLC-D011 from age of 5-week old, *p < 0.05. D Gross morphology of SLC-D011 injected Lmna^G609G/+ mouse. […] E SLC-D011 increases body weights of Lmna^G609G/+ mice (Con: n = 10; SLC-D011: n = 11), *p < 0.05. F Favorable effect of SLC-D011 on life span of Lmna^G609G/+ mice. Compared with vehicle-injected control group (ave = 46.7 weeks and max = 48 weeks), SLC-D011 treatment obviously extended the average life span to 63 weeks (max = 64 weeks). The injection was started from 32 weeks old, **p < 0.001. “Con” means vehicle (a solvent composed of DMSO and PBS)-injected mouse group. TEXT PRINTED IN THE PICTURE: (C) D011: Kaplan-Meier survival curve in Lmna^G609G/G609G: Ave=19; Kaplan-Meier survival curve in Lmna^G609G/G609G: Max=21 | (F) D011: Kaplan-Meier survival curve in Lmna^G609G/+: Ave=63; Kaplan-Meier survival curve in Lmna^G609G/+: Max=64 DOUBTS OF THE COPYIST ABOUT THIS PICTURE: Panels C and F: the Ave/Max labels are not printed with a group name. They are assigned to D011 (solid curve) or Con (dashed curve) only by their position beside the curves. / Panel C Ave=14.8, Max=15.5 and panel F Ave=46.7, Max=48 stand beside the dashed Con curve. They are left out because Con is the control group, not a substance. / No unit is printed with the Ave/Max values. Only the axis reads Age (weeks).
Animal experiments were performed in a facility certified by the Association for Assessment and Accreditation of Laboratory Animal Care in compliance with animal policies approved by Pusan National University. The mouse work was performed under the study protocol PNU-2019-2181, as approved by the Institutional Animal Care and Use Committee. Lmna^G609G/609G mice were generated by timed mating of heterozygous Lmna^G609G/+ provided by Carlos López-Otín (Universidad de Oviedo, Asturias, Oviedo, Spain). SLC-D011 was mixed with dimethyl sulfoxide (DMSO) and phosphate-buffered saline (PBS). It was then intraperitoneally injected into mice (20 mg/kg twice per week from 5-week-old). SLC-D011 and lonafarnib were orally administrated to mice daily at a concentration of 10 mg/ml in monoolein-based solution. Lonafarnib was generously provided by Merck, the Progeria Research Foundation (PRF) and the PRF Lonafarnib Pre-clinical Drug Supply Program. Control mice were treated with monoolein-based solution alone in the same way. Lmna^G609G/609G mice were treated with clear chemical solution throughout the life span, starting from 5 weeks of age. Lmna^G609G/+ mice were treated via intraperitoneal and oral administrations, starting from 32 weeks of age.
Fig. S10. Or al administration of SLC-D011 suppresses premature aging features of LmnaG609G/+ mi c e . A.
Gross morphology of SLC-D011 treated Lmna G609G/+ mice at 36 weeks old. […]

For CC1(C)Oc2cc3oc(=O)ccc3cc2C[C@@H]1OC/C=C/c1ccccc1 [SLC-D011], the Average life span (i.p. injection from 32 weeks old) was 63 weeks, the “Extension of life span” value (i.p. injection, longer than control (untreated)) was ~ 16 weeks and the Maximum life span (oral 50 mg/kg daily) was 65.5 weeks. It also gave an Average life span (oral 50 mg/kg daily, 50 mg/kg) of 64.9 weeks and an Average life span (oral 50 mg/kg daily, listed as progerinin, 50 mg/kg) of 65 weeks.
